According to patent EP1061957B1, “MANGANESE (II) CHELATES WITH HIGH RELAXIVITY IN SERUM” (BRACCO S.p.A., priority 1998, dated 1999):
Like-named read-outs stand apart in the source and are kept apart here.

How the values were obtained:
[1] = Relaxivity in human serum reconstituted from Seronorm Human; assay type: physicochemical; conditions: human serum reconstituted from lyophilized Seronorm Human (Nycomed Pharma)
Protocol: The relaxivity of the compounds of the invention was measured both in saline solution and in human serum, reconstituted from Seronorm^(R) Human (Nycomed Pharma), lyophilized human serum.

[2] = system: mouse; conditions: literature value, cited from earlier work
[3] = Thermodynamic stability constant in aqueous solution, potentiometric method; assay type: physicochemical; conditions: 20°C, 0.1 M KCl aqueous solution
[4] = system: mouse; experiment: Acute toxicity, DL50 in the mouse; assay type: in vivo; conditions: i.v.
[5] = thermodynamic stability constant; from Smith and Martell, Critical Stability Constants, Vol. 6; cited from earlier work

| Compound | Relaxivity Seronorm Human r1 [1] | DL50 ([2]; i.v.) | Log KML [3] | DL50 [4] | DL50 ([2]; i.p.) | Log KML [5] |
| --- | --- | --- | --- | --- | --- | --- |
| [Cl][Mn][Cl] [MnCl2] | 53 ^(3) mM^-1s^-1 | 0.25 - 0.30 ^(1) mmol/kg | – | – | – | – |
| Manganese complex(II) of N,N'-1,2-ethanediylbis[N-(carboxymethyl)-O-(phenylmethyl) -D,L-serine] salified with 1-deoxy-1-(methyl amino) -D-glucitol (1:2) [EXAMPLE 1] | 36 ^(3) mM^-1s^-1 | – | 13.8 ± 0.1 | 4.5 mmol/kg | – | – |
| Mn-EDTA | 10 ^(3) mM^-1s^-1 | – | – | – | 5.9 ^(2) mmol/kg | 13.88 ^(2) |
